Reference: patent publication US20100063139A1, “USE IN A COSMETIC COMPOSITION OF LIPOCHROMAN-6 TO ENHANCE THE RADIANCE OF THE COMPLEXION OF THE SKIN, ESPECIALLY THE SKIN OF THE FACE” (LVMH RECHERCHE, priority 2008, published 2010)
Several values for one entry are separate records, joined by “and”; a condition that tells them apart may be missing. Equal entries are not always repeated.

What was measured:
Type in all cases: cell-based
[1] = test system: methionine sulphoxide reductase (Msr); experiment: Msr activity in protein extracts of treated human keratinocytes (N-acetyl-(3H)-methionine-R,S sulphoxide substrate); conditions: dose of 0.05%; human keratinocytes in culture, 24 h treatment
Procedure: The keratinocytes are obtained from grafts of skin originating from abdomens of healthy donors aged 47 years.
Lipochroman-6 powder (supplier: Lipotec) is first diluted in 20 μl of absolute ethanol. Then a stock solution at 10 mg/ml in the K-SFM-S medium is prepared.
An intermediate solution at 1 mg/ml (dilution 20 μl in 200 μl of K-SFM-S medium) is prepared from the lipochroman-6 stock solution.
The dilutions are carried out in the K-SFM-S medium on the basis of the intermediate solution at 1 mg/ml.
The medium is drawn off from the cell flasks (passage P3) and replaced with the medium containing the different dilutions of actives. After 24 hours of treatment, the cells are washed with PBS buffer and then treated with trypsin. The cells are finally counted with a NucleoCounter from Chemometec (Bioblock). […]
The Msr activity is measured on the basis of the protein extracts by using the substrate N-acetyl-(^3H)-methionine-(R, S) sulphoxide in a reaction mixture of 30 μl containing Tris-HCl pH 7.5, 25 mM, MgCl2 10 mM, DTT 15 mM, at 37° C. […]
The required quantity of proteins is withdrawn and made up with water to a reaction volume of 20.8 μl in a 2 ml Eppendorf tube stored in ice. […]
Following centrifugation at 15 000 g for 5 minutes at ambient temperature, 1 ml of the upper, organic phase is withdrawn and is counted in a scintillation vial and admixed with 2 ml of Sigma Fluor scintillant. […]

gene MsrB (msrb) = experiment: Quantitative RT-PCR (RT-Q-PCR) of msrb gene expression in normal human epidermal keratinocytes; conditions: 24 h, NHK; for % Control (msrb/G3PDH): control = 100; for Mb Cycles (msrb): triplicate PCR cycle numbers
Procedure: (§1) The effect of lipochroman-6 on the basal expression of genes coding for the proteins MsrA and MsrB is evaluated by the method of quantitative RT-PCR (real-time PCR; RT-Q-PCR).
(§2) The model selected is that of normal human epidermal keratinocytes (NHK) cultivated in vitro.
(§3) Type: normal human epidermal keratinocytes (NHK)
(§4) Test medium: SFM medium without EGF and without PE (SFM-PE-EGF)
(§5) Lipochroman-6: stock solution at 10 mg/ml in ethanol, diluted in test medium at concentrations of 0.01 mg/ml and 0.005 mg/ml.
(§6) The keratinocytes are seeded and pre-cultured for 24 hours in complete SFM culture medium (24-well plates) and then placed in SFM-PE-EGF medium.
(§7) At confluence, the cells are treated or not (control) with the test product and are cultured for 24 h at 37° C. and 5% CO2. Each treatment is carried out in triplicate. The culture supernatants are then harvested and the cell layers are rinsed with PBS solution (Invitrogen), and then 300 μl of tri-reagent (Sigma) are added. The plates are subsequently frozen at −80° C.
(§8) The expression of the genes msra and msrb is evaluated by RT-Q-PCR on the basis of the messenger RNA (mRNA) extracted from the cell layers of each treatment. For each treatment, the three samples are combined into one prior to the extraction of the RNA.
(§9) The main steps of the protocol are as follows: • Extraction of the total RNA using tri-reagent, according to the protocol of the supplier. • Removal of traces of potentially contaminating DNA by treatment with the DNA-free system (Ambion). • Implementation of the reverse transcription reaction in the presence of the primer oligo(dT) and the enzyme Superscript II (Gibco).
(§10) The PCR reactions are carried out with the aid of the following primers: […]
(§11) The PCR (polymerase chain reaction) reactions are carried out by quantitative PCR with the Light Cycler system (Roche Molecular Systems Inc.) according to the procedures recommended by the supplier. To perform correctly, this analytical system requires prior development of the conditions of analysis of the different primers. This system is formed of two main components: an optimized thermocycler, which allows extremely rapid heat transfers, and a fluorimeter, which continuously measures the fluorescence intensity incorporated in the DNA (detection at 521 nm). The reaction mixture (10 μl final) for each sample is as follows: • 2.5 μl of cDNA diluted to 1/10th • primers of the different markers used • reaction mixture (Roche) containing the enzyme taq DNA polymerase, the marker SYBR Green I (a fluorophore which is integrated into the double-stranded DNA in the course of the elongation step) and MgCl2.
(§12) The incorporation of fluorescence into the amplified DNA is measured continuously during the PCR cycles. […] The number of cycles is determined on the basis of the “exit” points of the fluorescence curves. For a given marker analysed, the later the exit of a sample (high number of cycles) the lower the initial number of copies of the mRNA. The relative expression (RE) value is expressed in arbitrary units (AU) in accordance with the following formula: (½^number of cycles)×10^6.

[2] = test system: normal human keratinocytes (NHK); experiment: Immunostaining (DNPH/anti-DNP) of oxidized proteins in normal human keratinocytes, confocal image analysis; conditions: for DNP marking/No. of cells / DNP marking/surface area measured / Surface area DNP marking: 48 h; for Proportion of oxidized proteins/cells, KHN 0002: donor KHN 0002; for Proportion of oxidized proteins/cells, KHN 9726: donor KHN 9726; for Proportion of oxidized proteins/cells, Mean: mean of two donors
Procedure: Normal human keratinocytes (NHK) isolated from harvesting of human skin carried out on two different donors (labelled KHN002 and KHN 9726 hereinafter) are cultured in T75 flasks in complete KSFM medium (KSFMc) (Invitrogen GIBCO) at 37° C. and 5% CO2 and are seeded at 20 000 cells per well in 8-well Lab-Tek II culture systems (Nalge Nunc International).
After 48 h of culture, the cells are treated with the treatment solutions (see below).
A 0.004% weight/volume lipochroman-6 solution is prepared (solution A).
This is done by dissolving 20 mg of lipochroman-6 powder (supplier: Lipotec) in 2 ml of ethanol (solution at 10 mg/ml). This solution is diluted (40 μl of the stock solution in 10 ml of KSFm medium) to give solution A.
The treatment solutions are prepared by diluting solution A prepared above in the KSFMc medium, to give the correct percentage of lipochroman-6.
Treatments carried out on 3 wells per cell type: • control: KSFMc • solvent control: 0.1% solution of ethanol in KSFMc medium • 0.001% lipochroman • 0.002% lipochroman
After 48 hours of treatment, the KSFMc is drawn off. The cells are rinsed with phosphate buffer (PBS) (PBS tablets, Invitrogen GIBCO), then fixed with formalin (formalin solution 10% neutral buffered, Sigma) for 10 minutes at ambient temperature. After rinsing with PBS, the culture chambers are filled with 0.1% triton solution (Triton X-100, Sigma) for 10 minutes, then rinsed with PBS.
The subsequently disassembled culture chambers and the slides are immersed in a solution of 2,4-dinitrophenylhydrazine (300 mg of DNPH (Fluka)) in an ethanol/sulphuric acid (98.5 ml/1.5 ml) mixture for 30 minutes.
The dinitrophenyl (DNP) groups fixed to the oxidized proteins are recognized by a primary anti-DNP antibody.
For this purpose, in a first step, the slides are covered with a solution of primary antibody (monoclonal mouse anti-DNP antibody, Sigma), diluted to 1/500th in a 1% BSA/PBS solution, and are incubated for 60 minutes in an oven at ambient temperature and then rinsed with a 0.1% Tween-PBS solution (Tween20, Merck). In a second step, the cells are covered with a secondary antibody solution (Alexafluor 546 goat anti-mouse, Invitrogen) in a 1% BSA/PBS solution, and are incubated away from the light for 60 minutes. The slides are subsequently rinsed with PBS-Tween and then with PBS.
The photographs are made by confocal microscopy (Axioplan microscope from Zeiss and krypton-argon laser from BioRad) with the aid of the LaserSharp 2000 software (BioRad). For each condition, three photographs are made with the ×40 lens, according to the same acquisition parameters (gain, iris).
In practice, an excitation fluorescence at 546 nm is applied by the confocal laser to the cells. The fluorochrome Alexafluor 546, which represents the oxidized proteins, emits fluorescence at 573 nm, which is recovered by a specific filter and can be observed. The measured fluorescence is therefore directly proportional to the amount of oxidized proteins.
The photographs are analysed with the aid of the Leica QWin image analysis software. A program allows the DNPH staining to be quantified in order to evaluate the level of oxidized proteins and the number of cells.
The program detects the fluorescent staining of the oxidized proteins. A detection zone which is as representative as possible (number, size, cell density, intensity of marking) is delimited. The fluorescence of the oxidized proteins is measured in the delimited zone, and the cells in the same zone are numbered by counting of the cell nuclei (see FIGS. 2a, 2b, 2c, 2d and 2e).
The effect of lipochroman-6 on the oxidation of proteins is measured on the two types of normal human keratinocytes (NHK). This is done by estimating the surface area of staining of the oxidized proteins, the surface area of the measurement zone and the number of cells in the measurement surface area, using an image processing system.

gene MsrA (msra) = experiment: Quantitative RT-PCR (RT-Q-PCR) of msra gene expression in normal human epidermal keratinocytes; conditions: 24 h, NHK; for % Control (msra/G3PDH): control = 100; for Mb Cycles (msra): triplicate PCR cycle numbers
Procedure: as §1, §2, §3, §4, §5, §6, §7, §8, §9, §10, §11, §12

SMILES: COc1cc2c(cc1O)CCC(C)(C)O2 [Lipochroman-6]
- Increase of Msr activity [1]: 44%
- Mb/G3PDH (msrb/G3PDH) (gene MsrB (msrb); 0.005 mg/ml): 1.76 × 10^−2
- RE*Mb (AU) (msrb relative expression) (gene MsrB (msrb); 0.005 mg/ml): 3.516 × 10^−2 AU
- % Control (msrb/G3PDH) (gene MsrB (msrb); 0.005 mg/ml): 127%
- Mb Cycles (msrb) (gene MsrB (msrb); 0.005 mg/ml): 24.68 and 24.86 and 24.75
- Mb/G3PDH (msrb/G3PDH) (gene MsrB (msrb); 0.01 mg/ml): 2.05 × 10^−2
- RE*Mb (AU) (msrb relative expression) (gene MsrB (msrb); 0.01 mg/ml): 4.018 × 10^−2 AU
- % Control (msrb/G3PDH) (gene MsrB (msrb); 0.01 mg/ml): 148%
- Mb Cycles (msrb) (gene MsrB (msrb); 0.01 mg/ml): 24.62 and 24.60 and 24.49
- DNP marking/No. of cells ([2]; 0.001% lipochroman): 82.1 B
- DNP marking/surface area measured ([2]; 0.001% lipochroman): 28.7% D
- Surface area DNP marking ([2]; 0.001% lipochroman): 3776 C
- Proportion of oxidized proteins/cells, KHN 0002 ([2]; 0.001% lipochroman-6, 48 h): 76.3
- Proportion of oxidized proteins/cells, KHN 9726 ([2]; 0.001% lipochroman-6, 48 h): 88
- Proportion of oxidized proteins/cells, Mean ([2]; 0.001% lipochroman-6, 48 h): 82.1
- DNP marking/No. of cells ([2]; 0.002% lipochroman): 52.0 A
- DNP marking/surface area measured ([2]; 0.002% lipochroman): 18.4% B
- Surface area DNP marking ([2]; 0.002% lipochroman): 2415 B
- Proportion of oxidized proteins/cells, KHN 0002 ([2]; 0.002% lipochroman-6, 48 h): 60.9
- Proportion of oxidized proteins/cells, KHN 9726 ([2]; 0.002% lipochroman-6, 48 h): 43
- Proportion of oxidized proteins/cells, Mean ([2]; 0.002% lipochroman-6, 48 h): 52
- Mb/G3PDH (msra/G3PDH) (gene MsrA (msra); 0.005 mg/ml): 4.14 × 10^−3
- RE*Mb (AU) (msra relative expression) (gene MsrA (msra); 0.005 mg/ml): 8.251 × 10^−3 AU
- % Control (msra/G3PDH) (gene MsrA (msra); 0.005 mg/ml): 116%
- Mb Cycles (msra) (gene MsrA (msra); 0.005 mg/ml): 26.84 and 26.91 and 26.81
- Mb/G3PDH (msra/G3PDH) (gene MsrA (msra); 0.01 mg/ml): 4.42 × 10^−3
- RE*Mb (AU) (msra relative expression) (gene MsrA (msra); 0.01 mg/ml): 8.66 × 10^−3 AU
- % Control (msra/G3PDH) (gene MsrA (msra); 0.01 mg/ml): 124%
- Mb Cycles (msra) (gene MsrA (msra); 0.01 mg/ml): 26.83 and 26.79 and 26.73
